pEC50: −log10 of the molar value. Like-named read-outs stand apart in the source and are kept apart here.
Legend:
[1] = system: contracted strips of the rats' arota; assay: relaxing potency in vitro on phenylefrine-contracted strips of rat aorta; type: cell-based, rat (male Wistar); conditions: read-out: EC50 (concentration with which relaxation took place up to 50% of the contraction induced by 10^-7 M phenylefrine)
Procedure: The relaxing potency of the compounds as described is tested in vitro on contracted strips of the rats' arota. Male Wistar rates (200-220 g) are killed by decapitation. The thoracal aorta is removed and is helically cut into strips (length: ±10 mm, width: ±2 mm; 4 strips per rat).
The strips are suspended in organ baths filled with 20 ml of Krebs' medium with a constant temperature of 37° C. passing through O2 /CO2 (95/5) and subsequently for 2 h equilibrated under an isotonic load of 500 mg. The medium is renewed every 20 minutes.
After equilibration contraction takes place by addition of 10^-7M phenylefrine to the medium. After reaching the maximal contraction the composition with the organic nitrate ester to be tested in cumulative concentration steps is relaxed.
The degree of relaxation is expressed as a percentage of the maximal contraction (=100%) reached with 10^-7 M phenylefrine. The relaxing potency of the tested compounds is expressed as the EC50 : the concentration with which relaxation took place up to 50% of the contraction induced by 10^-7 M phenylefrine. From a number of compounds the EC50 -values have been stated in Table 1. For comparison the EC50 -values of glyceryltrinitrate and isosorbidedinitrate have also been included.

heart = conditions: therapeutical use; cited from earlier work
[2] = chronical administration, clinical; cited from earlier work

Compound	pEC50 ([1]; Rattus norvegicus)	further results
Cc1c(C)c(CCO[N+](=O)[O-])c(C)c(C)c1CCO[N+](=O)[O-] [Compound 12, 1,4-bis(2-nitroxyethyl)-2,3,5,6-tetramethylbenzene]	7.11	
O=[N+]([O-])OC(Cc1ccccc1)Cc1ccccc1 [Compound 23, 1,3-diphenyl-2-propanol nitrate]	6.40	
O=[N+]([O-])OCCc1ccc(CCO[N+](=O)[O-])cc1 [Compound 11, 1,4-bis(2-nitroxyethyl)benzene]	8.34	
O=[N+]([O-])OCCc1cccc2ccccc12 [Compound 9, 2-(1-naphthyl)ethanol nitrate]	8.38	
O=[N+]([O-])OCC(CO[N+](=O)[O-])O[N+](=O)[O-] [glyceryl trinitrate]		pEC50 ([1]; rat thoracal aorta strips, contracted with 10^-7 M phenylefrine, cumulative concentrations, 37° C.): 8.14; need of oxygen to the heart (heart): lower need of oxygen to the heart; post-load of the heart (heart): also affected, be it to a lower extent; pre-load of the heart (heart): diminish especially the pre-load of the heart; development of tolerance [2]: development of so-called tolerance
O=[N+]([O-])OCCc1ccccc1 [Compound 1, 2-phenylethanol nitrate]		pEC50 [1]: 6.92
O=[N+]([O-])O[C@@H]1CO[C@H]2[C@@H]1OC[C@@H]2OC(c1ccccc1)c1ccccc1 [Compound 28, 2-diphenylmethyl-1,4:3,6-dianhydroglucitol nitrate]	6.70	
O=[N+]([O-])OCCOC(c1ccccc1)c1ccccc1 [Compound 25, 2-diphenylmethoxyethanol nitrate]	6.60	
O=[N+]([O-])OCC(CO[N+](=O)[O-])c1ccc2ccccc2c1 [Compound 10, 2-(2-naphthyl)-1,3-propanediol nitrate]	7.89	

Reference: patent US5049694A, “Pharmaceutical composition having relaxing activity which contains a nitrate ester as active substance” (Cedona Pharmaceuticals B.V., priority 1988, dated 1991)
